Source: patent publication US20150284380A1, “NOVEL HETEROCYCLIC COMPOUNDS AS PEST CONTROL AGENTS” (BAYER CROPSCIENCE AG, priority 2012, published 2015)
Read-outs that look alike come from different tables or passages of the source.

Assays:
[1] = test system: green peach aphid (Myzus persicae); test: Myzus persicae spray test; assay type: in vivo; conditions: foliar, 144 h, read-out: efficacy in % (aphids killed)
Experimental: Myzus persicae—Spray Test
Solvent: 78 parts by weight of acetone • • 1.5 parts by weight of dimethylformamide
Emulsifier: 0.5 parts by weight of alkylaryl polyglycol ether
To produce a suitable active compound formulation, 1 part by weight of active compound is mixed with the stated amounts of solvent and emulsifier, and the concentrate is diluted with emulsifier-containing water to the desired concentration.
Discs of Chinese cabbage leaves (Brassica pekinensis) infested by all stages of the green peach aphid (Myzus persicae) are sprayed with an active compound formulation of the desired concentration.
After 6 days, the efficacy in % is determined. 100% means that all the aphids have been killed; 0% means that none of the aphids have been killed.

[2] = logP by HPLC-MS (HCOOH or neutral)
[3] = application rate 500 g/ha, spray on infested Chinese cabbage leaf discs, after 6 days
[4] = HCOOH (formic acid), logP (HCOOH), HPLC-MS, HCOOH
[5] = logP (neutral), HPLC-MS, neutral

Structure (SMILES) | chromatographic logP [2, 4] | pest or weed control at 500 g/ha [1, 3] [%] | also measured
CS(=O)(=O)NC(=O)c1cccc(-c2cnc(-c3ccnnc3)s2)n1 [Example 4] | 1.36 | 100 | –
Cn1cc(-c2ncc(-c3cccc(-c4ncccn4)n3)s2)cn1 [Example 8, 2-{6-[2-(1-Methyl-1H-pyrazol-4-yl)-1,3-thiazol-5-yl]pyridin-2-yl}pyrimidine] | – | 100 | chromatographic logP [2, 5]: 1.56
c1cnc(-c2cccc(-c3cnc(-c4cn[nH]c4)s3)n2)nc1 [Example 9, 2-{6-[2-(1H-Pyrazol-4-yl)-1,3-thiazol-5-yl]pyridin-2-yl}pyrimidine] | – | – | pest or weed control at 500 g/ha ([1]; in Brassica rapa): 90%; chromatographic logP [2]: 1.35
CS(=O)(=O)NC(=O)c1cccc(-c2cnc(-c3cnsc3)s2)n1 [Example 12] | 1.9 | 90 | –
c1cnc(-c2cccc(-c3cnc(-c4cncs4)s3)n2)nc1 [Example 1, 5-[6-(Pyrimidin-2-yl)pyridin-2-yl]-2,5′-bi-1,3-thiazole] | 1.76 | 80 | logP (HCOOH) ([2]; HPLC-MS, HCOOH): 1.74
FC(F)(F)c1cccc(-c2cnc(-c3cnsc3)s2)n1 [Example 11] | 3.13 | 90 | –

Second part, led by results:

chromatographic logP [2, 4] | Structure (SMILES) | pest or weed control at 500 g/ha [1, 3] [%] | also measured
1.37 | Cn1cc(-n2cc(-c3cccc(-c4ncccn4)n3)cn2)cn1 [Example 7] | 100 | –
1.23 | c1cnc(-c2cccc(-c3cnn(-c4ccnnc4)c3)n2)nc1 [Example 5] | 90 | –
1.37 | c1cnc(-c2cccc(-c3cnc(-c4ccnnc4)s3)n2)nc1 [Example 3, 4-{5-[6-(Pyrimidin-2-yl)pyridin-2-yl]-1,3-thiazol-2-yl}pyridazine] | 90 | chromatographic logP ([2]; neutral, logP (neutral), HPLC-MS): 1.4
1.65 | c1cnc(-c2cccc(-c3cnn(-c4cnsc4)c3)n2)nc1 [Example 2, 2-{6-[1-(isothiazol-4-yl)-1H-pyrazol-4-yl]pyridin-2-yl}pyrimidine] | – | chromatographic logP [2, 5]: 1.64
1.65 | c1cnc(-c2cccc(-c3cnn(-c4cnccn4)c3)n2)nc1 [Example 6] | 100 | –
1.91 | c1cnc(-c2cccc(-c3cnc(-c4cnsc4)s3)n2)nc1 [Example 10] | – | –
